The first experiment has as its target human DP2 (Homo sapiens (Human), UniProt Q9Y5Y4). The experiment in a line: DP-2 Binding Inhibition Assay (3H-PGD2 binding to membranes of K562 cells expressing DP2). Conditions: EC50 (Nm) 1% HSA, inhibition of 3H-PGD2 binding, 1% HSA. As to the method: DP-2 Binding Inhibition Assay
The coding sequence of human DP2 was introduced into the human Leukemic cell line K562 by electroporation and stable clones expressing DP2 were obtained by limiting dilution followed by cell surface staining with a rat monoclonal antibody specific for human DP2. Membranes were prepared from one of these DP2 expressing clones and used to determine the ability of compounds of the present invention to inhibit binding of prostaglandin D2 (PGD2) to its receptor DP2 in the presence of one or more of the following serum protein concentrations, 0.1% BSA, 1% HSA or 4% HSA, by the following procedure. Membranes (1.25 μg/well for 0.1% BSA and 6 μg/well for 1% or 4% HSA) were mixed with ^3H-labeled PGD2 and various concentrations of test compounds in 150 μL of binding buffer (50 mM Tris-HCl, pH 7.4, 40 mM MgCl2, 0.1% bovine serum albumin, 0.1% NaN3) in 96-well U-bottom polypropylene plates. After incubation for 60 minutes at room temperature, the assay was transferred to a filtration plate (#MAFB; Millipore Corporation, Bedford, Mass.), and washed three times with binding buffer. Radioactivity was measured by a scintillation counter (TopCount; PerkinElmer Life Sciences, Boston, Mass.). Nonspecific binding was determined by incubations in the presence of 1 μM unlabeled PGD2 or 5 μM of a known DP2 antagonist. EC50 values for inhibition of binding were determined for each compound tested from the inflexion point of a standard 4-parameter logistical curve fitted to the values obtained.
Chain of human DP2 (Q9Y5Y4 whole entry): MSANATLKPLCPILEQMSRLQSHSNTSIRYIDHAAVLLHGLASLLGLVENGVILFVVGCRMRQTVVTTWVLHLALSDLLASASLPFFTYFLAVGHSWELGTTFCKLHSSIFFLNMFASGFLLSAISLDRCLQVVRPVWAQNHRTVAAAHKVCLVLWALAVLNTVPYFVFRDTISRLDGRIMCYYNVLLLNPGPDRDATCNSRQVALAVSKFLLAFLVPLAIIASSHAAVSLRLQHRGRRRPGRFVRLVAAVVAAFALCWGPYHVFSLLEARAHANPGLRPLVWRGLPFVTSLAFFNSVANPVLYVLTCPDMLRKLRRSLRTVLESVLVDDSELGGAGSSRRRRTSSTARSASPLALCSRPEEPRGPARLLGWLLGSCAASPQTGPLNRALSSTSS
Usually EC50 stands for the concentration at which the effect is half-maximal. Regarding `O=C(NCCc1ccc(Cl)cc1)c1ccc(Oc2cc3c(cc2Cl)C(C(=O)O)CCO3)cc1` (single isomer, unassigned) [Example 11 Enantiomer 2, 6-Chloro-7-(4-(4-chlorophenethylcarbamoyl)phenoxy)chroman-4-carboxylic acid], the concentration for a half-maximal effect (EC50) stood at 9.3 nM.

Still in this experiment, the particulars now being: EC50 (nM) 4% HSA, inhibition of 3H-PGD2 binding, 4% HSA.
With `O=C(NCCc1ccc(Cl)cc1)c1ccc(Oc2cc3c(cc2Cl)C(C(=O)O)CCO3)cc1` (single isomer, unassigned) [Example 11 Enantiomer 2, 6-Chloro-7-(4-(4-chlorophenethylcarbamoyl)phenoxy)chroman-4-carboxylic acid], the EC50 is 111 nM.

Take `O=C(NCCc1ccc(Cl)cc1Cl)c1ccc(Oc2cc3c(cc2Cl)C(C(=O)O)CCO3)cc1` (single isomer, unassigned) [Example 106 Enantiomer 1, 6-chloro-7-(4-(2,4-dichlorophenethylcarbamoyl)phenoxy)chroman-4-carboxylic acid]: the EC50 was above 5000 nM.

In the case of `O=C(NC1CCC(c2ccccc2)CC1)c1ccc(Oc2cc3c(cc2Cl)C(C(=O)O)CCO3)cc1` (single isomer, unassigned) [Example 155 peak 1, 6-chloro-7-(4-(4-phenylcyclohexylcarbamoyl)phenoxy)chroman-4-carboxylic acid, isomer 1], the EC50 worked out at 399 nM.

The same experiment, now with this note: assay described in Example A.
Turning to `O=C(NCCc1ccc(Cl)cc1)c1ccc(Oc2cc3c(cc2Cl)C(C(=O)O)CCO3)cc1` (single isomer, unassigned) [Example 11 Enantiomer 2, 6-Chloro-7-(4-(4-chlorophenethylcarbamoyl)phenoxy)chroman-4-carboxylic acid], the “relative activity of the enantiomers in the DP2 binding inhibition assay” value is on record as “more potent DP2 binding enantiomer”.

Turning to `O=C(NCCc1ccc(Cl)cc1Cl)c1ccc(Oc2cc3c(cc2Cl)C(C(=O)O)CCO3)cc1` (single isomer, unassigned) [Example 106 Enantiomer 1, 6-chloro-7-(4-(2,4-dichlorophenethylcarbamoyl)phenoxy)chroman-4-carboxylic acid], the “relative activity of the enantiomers in the DP2 binding inhibition assay” value is reported as “less active than the sodium salt of Enantiomer 2”.

Staying with this experiment, now noted: read-out: EC50 (Nm) 1% HSA; inhibition of 3H-PGD2 binding, 1% HSA.
As to `N#Cc1cc2c(cc1Oc1ccc(C(=O)Nc3ccc(C(F)(F)F)cc3)cc1)OCCC2C(=O)O` (stereo not drawn) [Example 75, 6-Cyano-7-(4-(4-(trifluoromethyl)phenylcarbamoyl)phenoxy)chroman-4-carboxylic acid], the EC50 was found to be 11.9 nM.

For the molecule `COc1ccc2c(c1)CCC(NC(=O)c1ccc(Oc3cc4c(cc3C#N)C(C(=O)O)CCO4)cc1)C2` (stereo not drawn) [Example 53, 6-Cyano-7-(4-(6-methoxy-1,2,3,4-tetrahydronaphthalen-2-ylcarbamoyl)phenoxy)chroman-4-carboxylic acid], the half-maximal effective concentration (EC50) came to 60.5 nM.

Take `N#Cc1cc2c(cc1Oc1ccc(C(=O)Nc3ccc4ccccc4c3)cc1)OCCC2C(=O)O` (stereo not drawn) [Example 76, 6-Cyano-7-(4-(naphthalen-2-ylcarbamoyl)phenoxy)chroman-4-carboxylic acid]: the half-maximal effective concentration (EC50) was 6.7 nM.

On to `N#Cc1cc2c(cc1Oc1ccc(C(=O)NCCc3ccc(F)cc3)cc1)OCCC2C(=O)O` (stereo not drawn) [Example 49, 7-(4-((4-Fluorophenethyl)carbamoyl)phenoxy)-6-cyano-3,4-dihydro-2H-chromene-4-carboxylic acid], for which the concentration giving a half-maximal response (EC50) was 22.5 nM.

Still in this experiment, the particulars now being: read-out: EC50 (nM) 4% HSA; inhibition of 3H-PGD2 binding, 4% HSA.
Consider `O=C(NCCc1ccc(Br)cc1)c1ccc(Oc2cc3c(cc2Cl)C(C(=O)O)CCO3)cc1` (stereo not drawn) [Example 23, Sodium 7-(4-(4-bromophenethylcarbamoyl)phenoxy)-6-chlorochroman-4-carboxylate], for which the half-maximal effective concentration (EC50) worked out at 327 nM.

For the molecule `O=C(NCCc1ccccc1-c1ccc(Cl)cc1)c1ccc(Oc2cc3c(cc2Cl)C(C(=O)O)CCO3)cc1` (stereo not drawn) [Example 94, Sodium 6-chloro-7-(4-(2-(4′-chlorobiphenyl-2-yl)ethylcarbamoyl)phenoxy)chroman-4-carboxylate], the EC50 is 287 nM.

Turning to `Cc1ccc(-c2cccc(NC(=O)c3ccc(Oc4cc5c(cc4C#N)C(C(=O)O)CCO5)cc3)c2)cc1C` (stereo not drawn) [Example 66, 6-Cyano-7-(4-(3′,4′-dimethylbiphenyl-3-ylcarbamoyl)phenoxy)chroman-4-carboxylic acid], the EC50 worked out at 68.2 nM.

Turning to `N#Cc1cc2c(cc1Oc1ccc(C(=O)Nc3cccc(-c4ccccc4)c3)cc1)OCCC2C(=O)O` (stereo not drawn) [Example 67, 7-(4-(Biphenyl-3-ylcarbamoyl)phenoxy)-6-cyanochroman-4-carboxylic acid], the EC50 turned out to be 173 nM.

As for `COc1ccc(C2CCCC(NC(=O)c3ccc(Oc4cc5c(cc4Cl)C(C(=O)O)CCO5)cc3)C2)cc1` (stereo not drawn) [Example 161, 6-Chloro-7-(4-(3-(4-methoxyphenyl)cyclohexylcarbamoyl)phenoxy)chroman-4-carboxylic acid], the concentration giving a half-maximal response (EC50) was found to be 1120 nM.

For the molecule `CCOc1cc(OC)ccc1CCNC(=O)c1ccc(Oc2cc3c(cc2Cl)C(C(=O)O)CCO3)cc1` (stereo not drawn) [Example 228, 6-chloro-7-(4-(2-ethoxy-4-methoxyphenethylcarbamoyl)phenoxy)chroman-4-carboxylic acid], the EC50 turned out to be 88.9 nM.

For the molecule `N#Cc1cc2c(cc1Oc1ccc(C(=O)NCC3Cc4ccccc4C3)cc1)OCCC2C(=O)O` (stereo not drawn) [Example 126, 6-Cyano-7-(4-((2,3-dihydro-1H-inden-2-yl)methylcarbamoyl)phenoxy)chroman-4-carboxylic acid], the EC50 stood at 179 nM.

In the case of `O=C(NCCc1cccc2ccccc12)c1ccc(Oc2cc3c(cc2Cl)C(C(=O)O)CCO3)cc1` (stereo not drawn) [Example 86, Sodium 6-chloro-7-(4-(2-(naphthalen-1-yl)ethylcarbamoyl)phenoxy)chroman-4-carboxylate], the EC50 was 126 nM.

Take `Cc1cccc(-c2cccc(NC(=O)c3ccc(Oc4cc5c(cc4C#N)C(C(=O)O)CCO5)cc3)c2)c1` (stereo not drawn) [Example 108, 6-Cyano-7-(4-(3′-methylbiphenyl-3-ylcarbamoyl)phenoxy)chroman-4-carboxylic acid]: the EC50 was 69.3 nM.

Regarding `O=C(NCCc1ccccc1C(F)(F)F)c1ccc(Oc2cc3c(cc2Cl)C(C(=O)O)CCO3)cc1` (stereo not drawn) [Example 152, Sodium 6-chloro-7-(4-(2-(trifluoromethyl)phenethylcarbamoyl)phenoxy)chroman-4-carboxylate], the EC50 worked out at 160 nM.

As to `O=C(NCCc1ccc(Cl)cc1)c1ccc(Oc2cc3c(cc2C2CC2)C(C(=O)O)CCO3)cc1` (stereo not drawn) [Example 41, Sodium 7-(4-(4-chlorophenethylcarbamoyl)phenoxy)-6-cyclopropylchroman-4-carboxylate], the EC50 was 150 nM.

Turning to `CCOc1ccc(CCNC(=O)c2ccc(Oc3cc4c(cc3Cl)C(C(=O)O)CCO4)cc2)c(OC)c1` (stereo not drawn) [Example 227, 6-chloro-7-(4-(4-ethoxy-2-methoxyphenethylcarbamoyl)phenoxy)chroman-4-carboxylic acid], the EC50 turned out to be 74.5 nM.

As to `O=C(NCC(F)(F)c1ccc(Cl)cc1)c1ccc(Oc2cc3c(cc2Cl)C(C(=O)O)CCO3)cc1` (stereo not drawn) [Example 195, sodium 6-chloro-7-(4-(2-(4-chlorophenyl)-2,2-difluoroethylcarbamoyl)phenoxy)chroman-4-carboxylate], the EC50 worked out at 1150 nM.

On to `O=C(NCCc1cccc2c1OCO2)c1ccc(Oc2cc3c(cc2Cl)C(C(=O)O)CCO3)cc1` (stereo not drawn) [Example 193, sodium 7-(4-(2-(benzo[d][1,3]dioxol-4-yl)ethylcarbamoyl)phenoxy)-6-chlorochroman-4-carboxylate], for which the EC50 worked out at 640 nM.

In the case of `O=C(NC1CCN(c2cccc(C(F)(F)F)c2)CC1)c1ccc(Oc2cc3c(cc2Cl)C(C(=O)O)CCO3)cc1` (stereo not drawn) [Example 123, Sodium 6-chloro-7-(4-(1-(3-(trifluoromethyl)phenyl)piperidin-4-ylcarbamoyl)phenoxy)chroman-4-carboxylate], the EC50 was 259 nM.

Turning to `Cc1nccc(-c2cccc(NC(=O)c3ccc(Oc4cc5c(cc4C#N)C(C(=O)O)CCO5)cc3)c2)n1` (stereo not drawn) [Example 70, 6-Cyano-7-(4-(3-(2-methylpyrimidin-4-yl)phenylcarbamoyl)phenoxy)chroman-4-carboxylic acid], the EC50 is 995 nM.

In the case of `Cc1ccc(C2CCCC(NC(=O)c3ccc(Oc4cc5c(cc4Cl)C(C(=O)O)CCO5)cc3)C2)cc1` (stereo not drawn) [Example 160, 6-Chloro-7-(4-(3-(4-methylphenyl)cyclohexylcarbamoyl)phenoxy)chroman-4-carboxylic acid], the EC50 stood at 350 nM.

In the case of `O=C(NCCc1c(F)cccc1Cl)c1ccc(Oc2cc3c(cc2Cl)C(C(=O)O)CCO3)cc1` (stereo not drawn) [Example 82, Sodium 6-chloro-7-(4-(2-chloro-6-fluorophenethylcarbamoyl)phenoxy)chroman-4-carboxylate], the EC50 turned out to be 473 nM.

For the molecule `O=C(NCCc1ccccc1C1CC1)c1ccc(Oc2cc3c(cc2Cl)C(C(=O)O)CCO3)cc1` (stereo not drawn) [Example 93, Sodium 6-chloro-7-(4-(2-cyclopropylphenethylcarbamoyl)phenoxy)chroman-4-carboxylate], the EC50 came out at 107 nM.

Take `O=C(NCCc1ccc(SC(F)(F)F)cc1)c1ccc(Oc2cc3c(cc2Cl)C(C(=O)O)CCO3)cc1` (stereo not drawn) [Example 147, Sodium 6-chloro-7-(4-(4-(trifluoromethylthio)phenethylcarbamoyl)phenoxy)chroman-4-carboxylate]: the EC50 turned out to be 240 nM.

On to `O=C(NCCc1ccc(Cl)cc1Cl)c1ccc(Oc2c(Cl)cc3c(c2C2CC2)OCCC3C(=O)O)cc1` (stereo not drawn) [Example 43, Sodium 6-chloro-8-cyclopropyl-7-(4-(2,4-dichlorophenethylcarbamoyl)phenoxy)chroman-4-carboxylate], for which the EC50 came out at 51.5 nM.

With `CC(C)Oc1cc(Cl)ccc1CCNC(=O)c1ccc(Oc2cc3c(cc2Cl)C(C(=O)O)CCO3)cc1` (stereo not drawn) [Example 202, sodium 6-chloro-7-(4-(4-chloro-2-isopropoxy-phenethylcarbamoyl)phenoxy)chroman-4-carboxylate], the EC50 stood at 71.6 nM.

Regarding `O=C(NCCc1ccccc1-c1cccc(Cl)c1)c1ccc(Oc2cc3c(cc2Cl)C(C(=O)O)CCO3)cc1` (stereo not drawn) [Example 95, Sodium 6-chloro-7-(4-(2-(3′-chlorobiphenyl-2-yl)ethylcarbamoyl)phenoxy)chroman-4-carboxylate], the EC50 was 91.8 nM.

Source of the values: patent US9556139B2, “6-substituted phenoxychroman carboxylic acid derivatives” (Array BioPharma Inc., priority 2008, dated 2017).
